Measurements reported in article PMC9304322, “Targeting retinoic acid receptor alpha-corepressor interaction activates chaperone-mediated autophagy and protects against retinal degeneration” (Nature Communications, 2022).

Tested on: NIH3T3
Assay: Cell viability after paraquat (CellTiter-Blue)
Assay type: cell-based, mouse

Clc1ccc2c(c1)OCC(c1ccc(-c3ccccc3)cc1)=N2 [CA39]
protection against paraquat, compound added after the insult (2 μM or 10 μM, compared with AR7): significantly higher protection than AR7 | cell death by paraquat, compound administered before the insult (12 h treatment with 2 μM or 10 μM before PQ): reduced cell death
